Source: patent US20240254536A1, “[…] ARRAY AND USES THEREOF” (DrugArray, Inc., priority 2021, published 2024)

System: E. coli
Assay: pin array antibiotic susceptibility assay (zones of inhibition) on LB agar plates
Format: cell-based
Conditions: 7×7 pin array
Protocol: 1. Cell Introduction: E. coli resuspension were plated onto LB agar plates and incubated at 37° C. until the cells reach desired condition.
2. Pin array preparation: Two 7×7 pin arrays were loaded with ampicillin from 0.2 μg to 4 μg according to the configurations shown in FIGS. 5B and 6B, respectively.
(§1) 3. Treatment: After the cells reach the desired condition, the pin arrays loaded with ampicillin according to the configurations shown in FIGS. 5B and 6B were coupled to LB agar plates with E. coli culture. The LB agar plates were incubated at 37° C.
2. Pin array preparation: Two 7×7 pin arrays were loaded with ampicillin from 0.4 μg to 4 μg according to the configurations shown in FIGS. 7A and 7B, respectively.
as §1, with “7A” for “5B”, “7B” for “6B”, “37° C., and stored overnight at 4°” for “37°”, “C. and in Styrofoam box with ice packs, respectively.” for “C.”
2. Pin array preparation: A 7×7 pin array was loaded with ampicillin from 0.4 μg to 4 μg according to the configurations shown in FIG. 8A.
3. Treatment: After the cells reach the desired condition, the pin array loaded with ampicillin according to the configurations shown in FIG. 8A was coupled to an LB agar plate with E. coli culture. The LB agar plate was incubated at 37° C., and images of the plates were taken at the same day (FIG. 8A), and after 5 weeks at 4° C. (FIG. 8B).

For `CC1(C)S[C@@H]2[C@H](NC(=O)[C@H](N)c3ccccc3)C(=O)N2[C@H]1C(=O)O` [ampicillin], the zones of inhibition (ampicillin 0.2 μg to 4 μg, configuration of FIG. 5B, 37° C. (FIG. 5A)) was “well-defined, and a dose-dependent manner of the sizes of the zones”, the zones of inhibition (ampicillin 0.2 μg to 4 μg, configuration of FIG. 6B, 37° C. (FIG. 6A)) was “well-defined, dose-dependent zones of inhibition” and the zones of inhibition (ampicillin 0.4 μg to 4 μg, after 5 weeks of storage at 4° C. (FIG. 8B)) was “smaller zones of inhibition”. For the same molecule, the zones of inhibition (ampicillin 0.4 μg to 4 μg, image taken the same day (FIG. 8A)) was “Well-defined, dose-dependent zones of inhibition”, the zones of inhibition (ampicillin 0.4 μg to 4 μg, stored overnight at 4° C. (FIG. 7A)) was “Well-defined, dose-dependent zones of inhibition” and the zones of inhibition (ampicillin 0.4 μg to 4 μg, stored overnight in Styrofoam box with ice packs (FIG. 7B)) was “Well-defined, dose-dependent zones of inhibition”.
